Results published in paper PMC2751816, “Functional, Non-Clonal IgM^a-Restricted B Cell Receptor Interactions with the HIV-1 Envelope gp41 Membrane Proximal External Region” (PLoS ONE, 2009).
pKd: −log10 of the molar value.

Experiments:
[1] = tested on: BALB/c B cells (gp41 MPER tetramer binding); test: Cold inhibition of APC-labeled gp41 MPER tetramer binding by unlabeled tetramers; type: cell-based, mouse (BALB/c); conditions: unlabeled competitor tetramer pre-incubated; Fig. 4A,B; average of three experiments (4B)
Method: FACS staining of single cell suspensions (≥2×10^6) was conducted using pre-mixed combinations of fluorochrome-labeled Abs and APC-conjugated B cell tetramers at empirically-determined optimal concentrations. All Abs were from BD unless otherwise stated. Primary antibodies used were: PerCP anti-B220, FITC anti-IgD, FITC, PE or PE-Cy7 anti-IgM, PE anti-CD5, FITC anti-CD11b, PE-Cy7 anti-CD19, FITC anti-CD21, PE-Cy7 anti-CD23 (eBiosciences), and PE-Cy7 anti-CD93 (eBiosciences). Other reagents included biotinylated Abs against dump channel markers: Thy1 (Abcam), F4/80 (Abcam), CD11c, Gr-1, TER-119, and NK-1.1, secondary staining SA-Texas Red conjugate; v-amine live/dead violet dye (Molecular Probes), and Fc block (anti-CD16/32).
Staining was conducted at 4°C in several sequential steps in FACS staining buffer (1X PBS with 2% FCS, 0.1% NaN3), washing twice between steps. Cells were first incubated with v-amine live/dead dye for 15 min, then stained with APC-labeled tetramers for 30 min (and in some experiments, cold tetramer was incubated at 10 fold molar excess for 1 h, prior to staining with APC-labeled tetramers). Cells were then stained with Fc block, followed by incubation with combinations of primary Abs, and secondary staining with SA-Texas Red, each for 30 min. Data (≥2.5×10^5 events/sample) were acquired using an LSRII flow cytometer and Cell Quest software (BD Immunocytometry systems). FACS Analysis was performed using FlowJo software (Tree Star). For analysis, cells were gated in the following order: single cells were gated based on fsc height vs. fsc area+ssc height vs. ssc profiles, lymphocytes were gated on fsc and ssc profile, residual dead cells were excluded by negative gating with v-amine live/dead dye, and irrelevant non-B cells were excluded by negative gating with dump markers.

[2] = target: gp41 MPER peptide (nominal 2F5 epitope of the HIV-1 gp41 membrane proximal external region), N-biotinylated (HIV-1); test: SPR; monomeric or F(ab)2 IgM fragments injected over biotinylated peptides anchored to a SA-coated sensor chip; BIAcore 3000, BIAevaluation 4.1

Substance	inhibition of APC-labeled gp41 MPER tetramer binding (in words) [1]	pKd [2]
DWEYSLWLSN [dsDNA tetramers, double-stranded DNA (dsDNA) mimic tetramer made from the R4A peptide […], reference compound]	minimal competition with gp41 MPER binding	
monomeric IgM^a fragment of the purified mouse TNP-KLH-specific IgM^a mAb, BD clone G155-228 (antibody)		6.56
